Results on 18 compounds are retold here after US8937091B2 (Japan Science and Technology Agency, priority 2009, dated 2015).

The subject of test [1] is IICR (IP3 induced calcium release) in CHO cells. The test is described as follows: Assay of IICR (IP3 induced calcium release)-inhibiting action. Format: cell-based, Chinese hamster. The settings on record: CHO cells, 10 μM ATP; for inhibition at 10 µM / inhibition at 30 µM / inhibition at 100 µM: Cricetulus griseus, CHO, read-out: IICR level (percentage of inhibition); for inhibition at 30 µM: test compound 30 μmol; for inhibition at 100 µM: test compound 100 μmol. The procedure:
The extracellular fluid (i.e., medium) of cultured CHO cells was replaced by BSS containing calcium. One minute later, a test compound was added. Two minutes later, 10 μM ATP was added. The IICR-inhibiting action levels at different compound concentrations after the addition of ATP were determined as the percentage of inhibition (%) by evaluating the influence of the compound on the degree of increase in the intracellular calcium concentration.
(§1) Hereafter, the numerals in parentheses written after the TG level, the SOCE level, and the IICR level correspond to the test compound concentrations. The number following the name of each title compound used in the Examples below represents a compound ID number designated arbitrarily by the present inventors.

Test [2] concerns SOCE (store operated calcium entry) in CHO cells. The test is described as follows: Assay of SOCE (store operated calcium entry)-inhibiting action. The test is classed as cell-based, Chinese hamster. The conditions noted are these: CHO cells, thapsigargin; for inhibition at 10 µM / inhibition at 30 µM / inhibition at 100 µM: Cricetulus griseus, CHO, read-out: SOCE level (percentage of inhibition). The protocol:
The extracellular fluid (i.e., medium) of cultured Chinese hamster ovary (CHO) cells was replaced by BSS containing no calcium. One minute later, a test compound was added. Two minutes later, 1 μM thapsigargin was added to cause depletion of the intracellular calcium store. Nine minutes later, calcium chloride (final concentration: 2 mM) was added to the extracellular fluid. The SOCE-inhibiting action levels at different compound concentrations after the addition of calcium chloride were determined as the percentage of inhibition (%) by evaluating the influence of the compound on the degree of increase in the intracellular calcium concentration.
as §1

The term inhibition denotes the relative decrease from the control value, in per cent. In the case of `CC(C)(C)N(CCO)CCC(=O)c1ccncc1` [Example 30, 2-(N-t-butyl-2-hydroxyethyl)aminoethyl-4-pyridylketone], the results for the inhibition at 10 µM in test [1] (test compound 10 μmol) and in test [2] (test compound 10 μmol) were 20% and 0%, respectively. Also, the inhibition at 30 µM in test [1] stood at 10%; in test [2] (test compound 30 μmol), 0%. The inhibition at 100 µM was 10% in test [1] and 0% in test [2] (test compound 100 μmol).

Consider `CN(CCC(=O)c1ccncc1)Cc1ccccc1` [Example 31, 2-(N-methylbenzyl)aminoethyl-4-pyridylketone], for which the results for the inhibition at 10 µM in test [1] (test compound 10 μmol) and in test [2] (test compound 10 μmol) were 40% and 0%, respectively. For the same compound, the inhibition at 30 µM in test [1] is 60%; in test [2] (test compound 30 μmol) it was 0%. Further, the inhibition at 100 µM in test [1] was found to be 80%; in test [2] (test compound 100 μmol) it was 0%.

On to `CCCCN(CCO)CCC(=O)c1ccncc1` [Example 51, 2-(N-hydroxyethylbutyl)aminoethyl-4-pyridylketone], for which the inhibition at 10 µM in test [1] (test compound 10 μmol) and in test [2] (test compound 10 μmol) was 0% each time. Also, the inhibition at 30 µM in test [1] was 20%; in test [2] (test compound 30 μmol) it was 0%. For the same compound, the inhibition at 100 µM is 100% in test [1] and 0% in test [2] (test compound 100 μmol).

For the compound `CC(C)N(CCO)CCC(=O)c1ccsc1` [Example 56, 2-(hydroxyethylisopropyl)aminoethyl-3-thiophenylketone], the inhibition at 10 µM in test [1] (test compound 10 μmol) and in test [2] (test compound 10 μmol) was 0% in each case. For the same compound, the inhibition at 30 µM in test [1] and in test [2] (test compound 30 μmol) was 0% throughout. Also, the figures for the inhibition at 100 µM in test [1] and in test [2] (test compound 100 μmol) were 50% and 0%, respectively.

In the case of `CC(C)N(CCC(=O)c1ccc(Cc2ccccc2)cc1)Cc1ccccc1` [Example 64, 2-(N-isopropylbenzyl)aminoethyl-4-benzylphenylketone], the inhibition at 30 µM in test [1] came to 70%. Besides, the inhibition at 100 µM in test [1] is 96%. The “IICR level (percentage of inhibition)” value in test [1] (test compound 10 μmol) is reported as 50%. In addition, the “SOCE level (percentage of inhibition)” value turned out to be 0% in test [2] (test compound 10 μmol), 0% in test [2] (test compound 30 μmol) and 30% in test [2] (test compound 100 μmol).

With `Cc1ccc(C(=O)CCN(Cc2ccccc2)C(C)C)cc1` [Example 65, 2-(N-isopropylbenzyl)aminoethyl-4-methylphenylketone], the inhibition at 10 µM came to 30% in test [1] (test compound 10 μmol) and 0% in test [2] (test compound 10 μmol). For the same compound, the inhibition at 30 µM in test [1] is 10%; in test [2] (test compound 30 μmol), 0%. The inhibition at 100 µM in test [1] and in test [2] (test compound 100 μmol) was 30% throughout.

Regarding `CC(C)N(CCC(=O)c1ccc2ccccc2c1)Cc1ccccc1` [Example 66, 2-(N-isopropylbenzyl)aminoethyl-2-naphthylketone], the inhibition at 10 µM in test [1] (test compound 10 μmol) is 10%; in test [2] (test compound 10 μmol), 0%. Besides, the inhibition at 30 µM in test [1] is 10%; in test [2] (test compound 30 μmol), 0%. The inhibition at 100 µM in test [1] is 70%; in test [2] (test compound 100 μmol), 0%.

Consider `C=CC(=O)c1cccc2ccccc12` [Example 68, 1-acryloylnaphthalene], for which the inhibition at 10 µM in test [1] (test compound 10 μmol) is 80%; in test [2] (test compound 10 μmol), 0%. The values for the inhibition at 30 µM in test [1] and in test [2] (test compound 30 μmol) were 90% and 10%, respectively. Besides, the results for the inhibition at 100 µM in test [1] and in test [2] (test compound 100 μmol) were 95% and 70%, respectively.

Take `CC(C)N(CCC(=O)c1ccccc1)Cc1ccccc1` [Example 69, 2-(isopropylbenzyl)aminoethylphenylketone]: the inhibition at 10 µM in test [1] (test compound 10 μmol) is 20%; in test [2] (test compound 10 μmol), 0%. Further, the inhibition at 30 µM is 20% in test [1] and 10% in test [2] (test compound 30 μmol). Also, the figures for the inhibition at 100 µM in test [1] and in test [2] (test compound 100 μmol) were 90% and 20%, respectively.

Consider `O=C(CCN(c1ccccc1)c1ccccc1)c1cccc2ccccc12` [Example 70, 2-N-diphenylaminoethyl naphthylketone], for which the inhibition at 10 µM in test [1] (test compound 10 μmol) turned out to be 10%; in test [2] (test compound 10 μmol), 0%. In addition, the inhibition at 30 µM amounted to 0% in test [1] and 10% in test [2] (test compound 30 μmol). Further, the inhibition at 100 µM worked out at 40% in test [1] and 20% in test [2] (test compound 100 μmol).

Take `CN(CCC(=O)c1ccc2ccccc2c1)Cc1ccccc1` [Example 71, 2-(N-methylbenzyl)aminoethyl naphthylketone]: the inhibition at 10 µM in test [1] (test compound 10 μmol) and in test [2] (test compound 10 μmol) was 0% in each case. In addition, the inhibition at 30 µM in test [2] (test compound 30 μmol) came to 0%.

For the compound `COc1ccc(C(=O)CCN(Cc2ccccc2)C(C)C)cc1` [Example 72, 2-(N-isopropylbenzyl)aminoethyl-4-methoxyphenylketone], the inhibition at 10 µM in test [1] (test compound 10 μmol) came to 20%; in test [2] (test compound 10 μmol), 0%. In addition, the inhibition at 30 µM in test [1] came out at 20%; in test [2] (test compound 30 μmol) it was 10%. For the same compound, the results for the inhibition at 100 µM in test [1] and in test [2] (test compound 100 μmol) were 70% and 20%, respectively.

Take `CC(C)N(CCC(=O)c1ccccn1)Cc1ccccc1` [Example 73, 2-(N-isopropylbenzyl)aminoethyl-2-pyridylketone]: the inhibition at 10 µM in test [1] (test compound 10 μmol) was 70%; in test [2] (test compound 10 μmol), 0%. In addition, the inhibition at 30 µM came out at 100% in test [1] and 0% in test [2] (test compound 30 μmol). Also, the inhibition at 100 µM in test [1] worked out at 90%; in test [2] (test compound 100 μmol), 10%.

For `CN(CCC(=O)c1cccc2ccccc12)Cc1ccccc1` [Example 74, 2-(N-methylbenzyl)aminoethyl-1-naphthylketone], the inhibition at 10 µM was 30% in test [1] (test compound 10 μmol) and 0% in test [2] (test compound 10 μmol). Besides, the inhibition at 30 µM in test [1] turned out to be 50%; in test [2] (test compound 30 μmol) it was 10%. Further, the values for the inhibition at 100 µM in test [1] and in test [2] (test compound 100 μmol) were 70% and 30%, respectively.

In the case of `O=C(CCN(c1ccccc1)c1ccccc1)c1ccc2ccccc2c1` [Example 75, 2-(N-diphenyl)aminoethyl-2-naphthylketone], the inhibition at 10 µM in test [1] (test compound 10 μmol) and in test [2] (test compound 10 μmol) was 0% each time. Besides, the inhibition at 30 µM in test [1] and in test [2] (test compound 30 μmol) was 0% throughout. In addition, the inhibition at 100 µM in test [1] and in test [2] (test compound 100 μmol) was 0% each time.

For `COc1ccc(C(=O)CCN(C)Cc2ccccc2)cc1` [Example 76, 2-(N-methylbenzyl)aminoethyl-4-methoxyphenylketone], the inhibition at 10 µM in test [1] (test compound 10 μmol) and in test [2] (test compound 10 μmol) was 0% in each case. Besides, the inhibition at 30 µM in test [1] and in test [2] (test compound 30 μmol) was 10% in each case. In addition, the inhibition at 100 µM in test [1] came to 30%; in test [2] (test compound 100 μmol), 20%.

Consider `CN(CCC(=O)c1ccccn1)Cc1ccccc1` [Example 77, 2-(N-methylbenzyl)aminoethyl-2-pyridylketone], for which the inhibition at 10 µM in test [1] (test compound 10 μmol) and in test [2] (test compound 10 μmol) was 0% each time. Further, the inhibition at 30 µM in test [1] stood at 10%; in test [2] (test compound 30 μmol), 20%. Also, the inhibition at 100 µM in test [1] and in test [2] (test compound 100 μmol) was 30% each time.

For `Cc1cccc2cc(C(=O)CCN(C)Cc3ccccc3)ccc12` [Example 78, 2-(N-methylbenzyl)aminoethyl-5-methyl-2-naphthylketone], the inhibition at 10 µM in test [1] (test compound 10 μmol) was 20%; in test [2] (test compound 10 μmol) it was 10%. For the same compound, the inhibition at 30 µM in test [1] is 70%; in test [2] (test compound 30 μmol) it was 20%. The figures for the inhibition at 100 µM in test [1] and in test [2] (test compound 100 μmol) were 90% and 50%, respectively.
